Assay results reported in US9567329B2, “High penetration prodrug compositions of 1H-imidazo[4,5-c]quinolin-4-amines and 1H-imidazo[4,5-c]quinolin-4-amine-related compounds and uses thereof” (Techfields Pharma Co., Ltd, priority 2007, dated 2017).

Legend:
[1] = system: interferon production; test: Interferon inducing activity in guinea pigs (serum protection of fibroblasts from mengovirus); type: in vivo; details: serum 18 hours after treatment
Experimental: Without being bound by any mechanism, the ability to induce interferon production of the pro-drugs of the invention was evaluated in guinea pigs (n=10). Untreated guinea pigs provided controls.
Each test drug was administered to real back skin of a guinea pig at a specific dose of about 0.5-4.5 mg/kg respectively.
Each treated and control guinea pig was bled 18 hours after drug treatment and its serum was assayed for interferon activity. The serum was diluted and incubated with guinea pig fibroblast cells at 37° C. overnight in 96 well microtiter plates. The incubated cells were then challenged with an inoculum of mengovirus that was sufficient to kill untreated cells in two days. Two days after such challenge, the cells were examined both microscopically and after staining with crystal violet to determine whether the cells remained intact.
Table 4 contains the results of the study with activity/ml indicating the highest dilute on of serum that protected cells from virus challenge. Untreated guinea pigs provided controls.

[2] = system: interferon production; test: as above; type: in vivo; details: serum 18 hours after treatment; remark: listed apart in the source
[3] = system: herpes simplex virus Type I; test: Anti-Herpes activity, treated for 3 days before HSV infection; type: in vivo; details: guinea pigs
Experimental: (§1) The evaluation of anti-Herpes activity of these prodrugs was carried out using the method described by Kern, et al. [Antimicrob. Agents Chemother. 14, 817, (1978)]. In each experiment, female guinea pigs (n=10) were anesthetized. […] Virus replication was monitored by determining the amount of virus recovered with vaginal swabs taken on day 7 after infection. […] The percent Lesion Inhibition was calculated as follows: 100-[(Sum of maximum lesion scores of treated group divided by the Sum of the scores of infected control)×100] (Table 5).

[4] = system: herpes simplex virus Type II; test: as above; type: in vivo; details: guinea pigs
Experimental: as §1

[5] = system: herpes simplex virus Type I; test: Anti-Herpes activity, treated for 5 days, first treatment just after HSV infection; type: in vivo; details: guinea pigs
Experimental: (§2) The evaluation of anti-Herpes activity of these prodrugs was carried out using the method described by Kern, et al. [Antimicrob. Agents Chemother. 14, 817, (1978)].
(§3) In the second experiment, female guinea pigs (n=10) were anesthetized. Herpes simplex virus (Type I or Type II, about 10^5 plaque forming units were used) was applied intravaginally to the guinea pigs using a cotton swab. […] Virus replication was monitored by determining the amount of virus recovered with vaginal swabs taken on day 7 after infection. External lesions were scored daily for ten days using the following scale: 0, no lesion; 1, redness and swelling; 2, a few small vesicles; 3, several large vesicles; 4, large ulcers and necrosis; and 5, paralysis. The percent Lesion Inhibition was calculated as follows: 100−[(Sum of maximum lesion scores of treated group divided by the Sum of the scores of infected control)×100] (Table 6).

[6] = system: herpes simplex virus Type II; test: as above; type: in vivo; details: guinea pigs
Experimental: as §2, §3

[7] = system: herpes simplex virus Type I; test: Anti-Herpes activity, treated for 5 days, first treatment 5 days after HSV infection; type: in vivo; details: guinea pigs
Experimental: as §2
(§4) In the third experiment, female guinea pigs (n=10) were anesthetized. The guinea pigs were then infected with herpes simplex virus (type I or Type II, about 10^5 plaque forming units were used) intravaginally using a cotton swab. […] External lesions were scored daily for ten days using the following scale: 0, no lesion; 1, redness and swelling; 2, a few small vesicles; 3, several large vesicles; 4, large ulcers and necrosis; and 5, paralysis. The percent Lesion Inhibition was calculated as follows: 100−[(Sum of maximum lesion scores of treated group divided by the Sum of the scores of infected control)×100] (Table 7).

[8] = system: herpes simplex virus Type II; test: as above; type: in vivo; details: guinea pigs
Experimental: as §2, §4

[9] = system: Human breast cancer cells (BCAP-37); test: Antitumor activity, breast cancer xenograft, topical treatment from day 1; details: 50 μl of 3% topically once per day from day 1; after 28 days
Excerpt: Human breast cancer cells (BCAP-37, 4-5 mm^3 of tumor tissue was used in each mouse) were subcutaneous xenografted into nude mice (BALB).

[10] = Irritative effect or discomfort on skin of nude mice after topical application; type: in vivo; details: 0.1 ml of 3% in pH 7.4 phosphate buffer, back of nude mice, twice per day, 1 week
Experimental: Irritative effect or discomfort in the skin of mice of HPPs of 1H-imidazo[4,5-c]quinolin-4-amines or 1H-imidazo[4,5-c]quinolin-4-amine-related compounds was evaluated during a period of 1 week after the topical application of 0.1 ml of 3% of the respective test drug in pH 7.4 phosphate buffer (0.2 M) to the back of nude mice twice per day.

[11] = system: Human colon cancer cells (LS174J); test: Antitumor activity, colon cancer xenograft, topical treatment from day 1; details: 50 μl of 3% topically twice per day from day 1; after 28 days
Excerpt: Human colon cancer cells (LS174J, 4-5 mm^3 of tumor tissue was used in each mouse) were subcutaneously xenografted into nude mice (BALB).

[12] = Conversion of HPPs to parent drugs in human plasma (half life); type: in vitro ADME; details: 37° C.
Experimental: HPPs of 1H-imidazo[4,5-c]quinolin-4-amines or 1H-imidazo[4,5-c]quinolin-4-amine-related compounds converted to the parent 1H-imidazo[4,5-c]quinolin-4-amines or 1H-imidazo[4,5-c]quinolin-4-amine-related compounds quickly in good yield in human plasma.
A HPP of 1H-imidazo[4,5-c]quinolin-4-amines or 1H-imidazo[4,5-c]quinolin-4-amine-related compound (0.05 mg) was dissolved in 0.1 ml of 0.2M pH 7.4 phosphate buffer. 1 ml of human plasma, preheated to 37° C., was added into the mixture. The mixture was kept in a water bath at 37° C., and at every 10 min intervals 0.2 ml of samples were withdrawn and added to 0.4 ml of methanol to precipitate the plasma protein. The samples were centrifuged for 5 min and analyzed by HPLC.

[13] = system: Human breast cancer cells (BCAP-37)
Excerpt: Human breast cancer cells (BCAP-37, 3-4 mm^3 of tumor tissue was used in each mouse) were subcutaneously xenografted into nude mice (BALB).

[14] = In vitro penetration rate across human skin in modified Franz cells; type: in vitro ADME; details: 3% solution in ethanol/pH 7.4 phosphate buffer (0.2 M) 70/30
Experimental: Penetration rates of HPPs and their parent drugs through human skin were measured in vitro by modified Franz cells. A Franz cell had two chambers, the top sample chamber and the bottom receiving chamber. The human skin tissue (360-400 μm thick) that separated the top and the receiving chambers was isolated from the anterior or posterior thigh areas.
A compound tested (0.5 mL, 3% in a mixture of ethanol and phosphate buffer (0.2M, pH 7.4) (v/v, 70/30)) was added to the sample chamber of a Franz cell. The receiving chamber contains 2 ml of 2% bovine serum albumin in saline which was stirred at 600 rpm. The amount of the tested compound penetrating the skin was determined by high-performance liquid chromatography (HPLC) method.
The lowest detectable apparent flux values in this method was 1 μg/cm^2/h.

[15] = 0.5 mg/kg once per day for 3 days before HSV infection
[16] = 1.5 mg/kg once per day for 3 days before HSV infection
[17] = 4.5 mg/kg once per day for 3 days before HSV infection
[18] = 0.5 mg/kg once per day for 5 days
[19] = 1.5 mg/kg once per day for 5 days
[20] = 4.5 mg/kg once per day for 5 days
[21] = at day 42, treatment from day 21 (tumors 13±2 mm×12±3 mm), 50 μl of 3% topically once per day

**Q.** Which results are given for `CNCC(=O)Nc1nc2ccccc2c2c1ncn2CC(C)C.Cl` [sarcosine 1-isobutyl-1H-imidazo[4,5-c]quinolin-4-amide hydrochloride]?
**A.** Interferon level of the HPP, transdermal ([1]; 0.5 mg/kg once): 8,676 activity/ml; Interferon level of the HPP, transdermal ([1]; 1.5 mg/kg once): 16,784 activity/ml; Interferon level of the HPP, transdermal ([1]; 4.5 mg/kg once): 57,235 activity/ml; Interferon level of the HPP, intravaginal ([2]; 0.5 mg/kg once): 23,647 activity/ml; Interferon level of the HPP, intravaginal ([2]; 1.5 mg/kg once): 56,735 activity/ml; Interferon level of the HPP, intravaginal ([2]; 4.5 mg/kg once): 87,795 activity/ml; % Lesion inhibition of the HPP, intravaginal, Herpes type I [3, 15]: 71%; % Lesion inhibition of the HPP, transdermal, Herpes type I [3, 15]: 45%; % Lesion inhibition of the HPP, intravaginal, Herpes type I [3, 16]: 93%; % Lesion inhibition of the HPP, transdermal, Herpes type I [3, 16]: 72%; % Lesion inhibition of the HPP, intravaginal, Herpes type I [3, 17]: 95%; % Lesion inhibition of the HPP, transdermal, Herpes type I [3, 17]: 91%; % Lesion inhibition of the HPP, intravaginal, Herpes type II [4, 15]: 75%; % Lesion inhibition of the HPP, transdermal, Herpes type II [4, 15]: 51%; % Lesion inhibition of the HPP, intravaginal, Herpes type II [4, 16]: 90%; % Lesion inhibition of the HPP, transdermal, Herpes type II [4, 16]: 73%; % Lesion inhibition of the HPP, intravaginal, Herpes type II [4, 17]: 96%; % Lesion inhibition of the HPP, transdermal, Herpes type II [4, 17]: 90%; % Lesion inhibition of the HPP, intravaginal, Herpes type I [5, 18]: 57%; % Lesion inhibition of the HPP, transdermal, Herpes type I [5, 18]: 47%; % Lesion inhibition of the HPP, intravaginal, Herpes type I [5, 19]: 87%; % Lesion inhibition of the HPP, transdermal, Herpes type I [5, 19]: 77%; % Lesion inhibition of the HPP, intravaginal, Herpes type I [5, 20]: 95%; % Lesion inhibition of the HPP, transdermal, Herpes type I [5, 20]: 91%; % Lesion inhibition of the HPP, intravaginal, Herpes type II [6, 18]: 56%; % Lesion inhibition of the HPP, transdermal, Herpes type II [6, 18]: 49%; % Lesion inhibition of the HPP, intravaginal, Herpes type II [6, 19]: 90%; % Lesion inhibition of the HPP, transdermal, Herpes type II [6, 19]: 80%; % Lesion inhibition of the HPP, intravaginal, Herpes type II [6, 20]: 96%; % Lesion inhibition of the HPP, transdermal, Herpes type II [6, 20]: 93%; % Lesion inhibition of the HPP, intravaginal, Herpes type I [7, 18]: 37%; % Lesion inhibition of the HPP, transdermal, Herpes type I [7, 18]: 37%; % Lesion inhibition of the HPP, intravaginal, Herpes type I [7, 19]: 68%; % Lesion inhibition of the HPP, transdermal, Herpes type I [7, 19]: 57%; % Lesion inhibition of the HPP, intravaginal, Herpes type I [7, 20]: 88%; % Lesion inhibition of the HPP, transdermal, Herpes type I [7, 20]: 89%; % Lesion inhibition of the HPP, intravaginal, Herpes type II [8, 18]: 38%; % Lesion inhibition of the HPP, transdermal, Herpes type II [8, 18]: 38%; % Lesion inhibition of the HPP, intravaginal, Herpes type II [8, 19]: 70%; % Lesion inhibition of the HPP, transdermal, Herpes type II [8, 19]: 58%; % Lesion inhibition of the HPP, intravaginal, Herpes type II [8, 20]: 90%; % Lesion inhibition of the HPP, transdermal, Herpes type II [8, 20]: 88%; Tumor size, Human breast cancer, first dimension [9]: None; tumor incidence, human breast cancer [9]: no tumor was seen; signs of irritative effect or discomfort in the skin [10]: None of any signs of irritative effect or discomfort was observed; Tumor size, Human colon cancer, first dimension [11]: None; tumor incidence, human colon cancer [11]: no tumor was seen; Half life of HPPs in plasma [12]: 27 ± 1 min; tumor size, first dimension [13, 21]: 11±2 mm; tumor size, second dimension [13, 21]: 10±2 mm; death of mice ([13]; up to day 70, 50 μl of 3% topically once per day from day 21): none of mice died at day 70; In vitro Penetration Rate of HPPs (apparent flux) [14]: 0.15 mg/cm^2/h
